# Experimental data as given in patent US12103952B2, “Methods for expressing proteins in axons” (Cornell University, priority 2010, dated 2024).
# Key:
# [1] = test system: CREB reporter mRNA translation in DRG axons; assay: myr-dEGFP3′CREB Sindbis translation reporter in axons; assay type: cell-based, rat; conditions: factor restored after NGF-free media
# Text: FIGS. 5A-C are results showing NGF-dependent translation of a CREB reporter mRNA in axons. (A) Schematic diagram of the Sindbis viral reporter construct used to monitor CREB translation. The reporter contains a myristoylated, destabilized EGFP (myr-dEGFP) with the 3′UTR of CREB, expressed under control of the Sindbis subgenomic promoter (PSG). (B) E15 DRG explant cultures were infected with Sindbis constructs expressing myr-dEGFP3′CREB on DIV3 and fluorescence (bottom panel) and phase (top panel) images, approximately 1000 μm from the cell body were collected after 24 hours. Fluorescence images are shown in inverted contrast in order to more readily visualize puncta. Scale bar, 25 μm. […] EGFP fluorescence co-localizes with a population of S6-labeled ribosomal clusters. […]
# FIGS. 6A-H are data showing that axonal CREB is specifically translated in response to NGF. […] (B) E15 DRG explant cultures were infected with Sindbis constructs expressing myr-dEGFP3′RhoA or myr-dEGFP3′H1f0 on DIV3 and fluorescence images were collected after 24 h. […] (D) Axons from DIV3 DRGs were analyzed for CREB and mitochondrial localizations by immunofluorescence using CREB-specific and VDAC/porin1-specific antibodies. […] CREB mRNA was detected by FISH using a CREB specific riboprobe. […] (H) Axons of DIV3 DRG explant cultures were analyzed by immunofluorescence for NGF effectors CREB, pTrkA and pErk5 at 3 DIV. […]
# 4E-BP1 = assay: Phospho-4E-BP1 immunofluorescence in axons; assay type: cell-based, rat; conditions: NGF 1 hour after 2 hour NGF-free media
# Procedure: FIGS. 2A-E are results showing that local protein synthesis in axons is required for NGF-dependent survival. (A) Phospho-4E-BP1 levels increase in growth cones in response to NGF treatment. DRG neurons were incubated with NGF-replete or NGF-free media; phospho-4E-BP1 levels in axons were measured by immunofluorescence. Scale bar, 50 μm. (B) Quantification of total and phospho-4EBP1 in (A) p=0.012. Numbers on bars represent n axons per condition. (C) Schematic diagram of compartmented (Campenot) chambers. E15 dissociated DRG neurons are cultured in the cell body compartment and axons grow under a thinly applied silicone grease layer that seals the chamber with the Permanox® plastic culture slide. (D) Application of protein synthesis inhibitors to axons blocks NGF-mediated retrograde survival. Dissociated DRG neurons were grown in compartmentalized chambers, and vehicle or NGF was added to the axon compartment. 1 μM cycloheximide (CHX) or 40 μM anisomycin (Aniso) were added to the axon compartment concurrently with NGF media. Cell body compartments were kept NGF-free during the course of the experiment. Cells crossing the divider were retrogradely labeled with WGA-Alexa555 and only WGA-positive cell bodies were counted in the data set. Survival was assessed by TUNEL assay. […] (E) Quantification of results from (D). *p<0.001. […]
substance,measurement,setting,value
NGF: nerve growth factor,fluorescent myr-dEGFP3′CREB puncta,[1],reappeared following restoration of NGF
same,phosphorylation of 4E-BP1 in axons,4E-BP1,increased phosphorylation of 4E-BP1 at S64 and T69
